Activity calls are given as the source filed them. The calls are words filed in the database; no cut-off is given here.
Key:
Streptococcus pyogenes [1] = assay: Potentiation of erythromycin-induced antibacterial activity against Streptococcus pyogenes ATCC 14289 assessed as minimum modulatory concentration up to 32 uM measured after 16 hrs in presence of MIC/4 erythromycin; format: functional; conditions: ATCC 14289, 16 h, read-out: MEC
Enterococcus faecium [2] = assay: Potentiation of geneticin-induced antibacterial activity against Enterococcus faecium ATCC 700221 assessed as minimum modulatory concentration up to 32 uM measured after 16 hrs in presence of MIC/4 geneticin; format: functional; conditions: ATCC 700221, 16 h, read-out: MEC
Escherichia coli [3] = assay: Potentiation of methicillin-induced antibacterial activity against Escherichia coli ATCC 43894 assessed as minimum modulatory concentration up to 32 uM measured after 16 hrs in presence of MIC/4 methicillin; format: functional; conditions: ATCC 43894, 16 h, read-out: MEC
Enterococcus faecium [4] = assay: Potentiation of ciprofloxacin-induced antibacterial activity against Enterococcus faecium ATCC 700221 assessed as minimum modulatory concentration up to 32 uM measured after 16 hrs in presence of MIC/4 ciprofloxacin; format: functional; conditions: ATCC 700221, 16 h, read-out: MEC
Enterococcus faecium [5] = assay: Potentiation of erythromycin-induced antibacterial activity against Enterococcus faecium ATCC 700221 assessed as minimum modulatory concentration up to 32 uM measured after 16 hrs in presence of MIC/4 erythromycin; format: functional; conditions: ATCC 700221, 16 h, read-out: MEC
Enterococcus faecium [6] = assay: Toxicity in Enterococcus faecium ATCC 700221 up to 32 uM measured after 16 hrs; format: organism-based; conditions: in vitro
Enterococcus faecium [7] = assay: Potentiation of methicillin-induced antibacterial activity against Enterococcus faecium ATCC 700221 assessed as minimum modulatory concentration up to 32 uM measured after 16 hrs in presence of MIC/4 methicillin; format: functional; conditions: ATCC 700221, 16 h, read-out: MEC
Staphylococcus aureus [8] = assay: Potentiation of geneticin-induced antibacterial activity against Staphylococcus aureus ATCC 33592 assessed as minimum modulatory concentration up to 32 uM measured after 16 hrs in presence of MIC/4 geneticin; format: functional; conditions: ATCC 33592, 16 h, read-out: MEC
Escherichia coli [9] = assay: Potentiation of ciprofloxacin-induced antibacterial activity against Escherichia coli ATCC 43894 assessed as minimum modulatory concentration up to 32 uM measured after 16 hrs in presence of MIC/4 ciprofloxacin; format: functional; conditions: ATCC 43894, 16 h, read-out: MEC
Escherichia coli [10] = assay: Potentiation of geneticin-induced antibacterial activity against Escherichia coli ATCC 43894 assessed as minimum modulatory concentration up to 32 uM measured after 16 hrs in presence of MIC/4 geneticin; format: functional; conditions: ATCC 43894, 16 h, read-out: MEC
Streptococcus pyogenes [11] = assay: Potentiation of geneticin-induced antibacterial activity against Streptococcus pyogenes ATCC 14289 assessed as minimum modulatory concentration up to 32 uM measured after 16 hrs in presence of MIC/4 geneticin; format: functional; conditions: ATCC 14289, 16 h, read-out: MEC
Macrophage cell line [12] = assay: Induction of prostaglandin production in human PBMC-differentiated macrophages after 24 hrs by ELISA; format: cell-based
Klebsiella pneumoniae [13] = assay: Potentiation of erythromycin-induced antibacterial activity against Klebsiella pneumoniae ATCC 13883 assessed as minimum modulatory concentration up to 32 uM measured after 16 hrs in presence of MIC/4 erythromycin; format: functional; conditions: ATCC 13883, 16 h, read-out: MEC
Pseudomonas aeruginosa [14] = assay: Toxicity in Pseudomonas aeruginosa ATCC BAA-2108 up to 32 uM measured after 16 hrs; format: organism-based; conditions: in vitro
Macrophage cell line [15] = assay: Antiinflammatory activity in human PBMC-differentiated macrophages assessed as inhibition of LPS-induced prostaglandin production at 0.01 to 10 uM measured after 24 hrs by ELISA; format: functional, cell-based
Staphylococcus aureus [16] = assay: Potentiation of erythromycin-induced antibacterial activity against Staphylococcus aureus ATCC 33592 assessed as minimum modulatory concentration up to 32 uM measured after 16 hrs in presence of MIC/4 erythromycin; format: functional; conditions: ATCC 33592, 16 h, read-out: MEC
Pseudomonas aeruginosa [17] = assay: Potentiation of methicillin-induced antibacterial activity against Pseudomonas aeruginosa ATCC BAA-2108 assessed as minimum modulatory concentration up to 32 uM measured after 16 hrs in presence of MIC/4 methicillin; format: functional; conditions: ATCC BAA-2108, 16 h, read-out: MEC
Pseudomonas aeruginosa [18] = assay: Potentiation of geneticin-induced antibacterial activity against Pseudomonas aeruginosa ATCC BAA-2108 assessed as minimum modulatory concentration up to 32 uM measured after 16 hrs in presence of MIC/4 geneticin; format: functional; conditions: ATCC BAA-2108, 16 h, read-out: MEC
Macrophage cell line [19] = assay: Antiinflammatory activity in human PBMC-differentiated macrophages assessed as inhibition of LPS-induced IL-8 production at 0.01 to 10 uM measured after 24 hrs by ELISA; format: functional, cell-based
Streptococcus pyogenes [20] = assay: Potentiation of ciprofloxacin-induced antibacterial activity against Streptococcus pyogenes ATCC 14289 assessed as minimum modulatory concentration up to 32 uM measured after 16 hrs in presence of MIC/4 ciprofloxacin; format: functional; conditions: ATCC 14289, 16 h, read-out: MEC
Klebsiella pneumoniae [21] = assay: Potentiation of tetracycline-induced antibacterial activity against Klebsiella pneumoniae ATCC 13883 assessed as minimum modulatory concentration up to 32 uM measured after 16 hrs in presence of MIC/4 tetracycline; format: functional; conditions: ATCC 13883, 16 h, read-out: MEC
Klebsiella pneumoniae [22] = assay: Toxicity in Klebsiella pneumoniae ATCC 13883 up to 32 uM measured after 16 hrs; format: organism-based
Klebsiella pneumoniae [23] = assay: Potentiation of ciprofloxacin-induced antibacterial activity against Klebsiella pneumoniae ATCC 13883 assessed as minimum modulatory concentration up to 32 uM measured after 16 hrs in presence of MIC/4 ciprofloxacin; format: functional; conditions: ATCC 13883, 16 h, read-out: MEC
Macrophage cell line [24] = assay: Induction of TNFalpha production in human PBMC-differentiated macrophages after 24 hrs by ELISA; format: cell-based
Staphylococcus aureus [25] = assay: Potentiation of ciprofloxacin-induced antibacterial activity against Staphylococcus aureus ATCC 33592 assessed as minimum modulatory concentration up to 32 uM measured after 16 hrs in presence of MIC/4 ciprofloxacin; format: functional; conditions: ATCC 33592, 16 h, read-out: MEC
Pseudomonas aeruginosa [26] = assay: Potentiation of tetracycline-induced antibacterial activity against Pseudomonas aeruginosa ATCC BAA-2108 assessed as minimum modulatory concentration up to 32 uM measured after 16 hrs in presence of MIC/4 tetracycline; format: functional; conditions: ATCC BAA-2108, 16 h, read-out: MEC
Escherichia coli [27] = assay: Toxicity in Escherichia coli ATCC 43894 up to 32 uM measured after 16 hrs; format: organism-based
Escherichia coli [28] = assay: Potentiation of tetracycline-induced antibacterial activity against Escherichia coli ATCC 43894 assessed as minimum modulatory concentration up to 32 uM measured after 16 hrs in presence of MIC/4 tetracycline; format: functional; conditions: ATCC 43894, 16 h, read-out: MEC
Streptococcus pyogenes [29] = assay: Potentiation of methicillin-induced antibacterial activity against Streptococcus pyogenes ATCC 14289 assessed as minimum modulatory concentration up to 32 uM measured after 16 hrs in presence of MIC/4 methicillin; format: functional; conditions: ATCC 14289, 16 h, read-out: MEC
Pseudomonas aeruginosa [30] = assay: Potentiation of erythromycin-induced antibacterial activity against Pseudomonas aeruginosa ATCC BAA-2108 assessed as minimum modulatory concentration up to 32 uM measured after 16 hrs in presence of MIC/4 erythromycin; format: functional; conditions: ATCC BAA-2108, 16 h, read-out: MEC
Macrophage cell line [31] = assay: Induction of IL-1beta production in human PBMC-differentiated macrophages after 24 hrs by ELISA; format: cell-based
Pseudomonas aeruginosa [32] = assay: Potentiation of ciprofloxacin-induced antibacterial activity against Pseudomonas aeruginosa ATCC BAA-2108 assessed as minimum modulatory concentration up to 32 uM measured after 16 hrs in presence of MIC/4 ciprofloxacin; format: functional; conditions: ATCC BAA-2108, 16 h, read-out: MEC
Macrophage cell line [33] = assay: Cytotoxicity against human PBMC-differentiated macrophages treated for 24 hrs followed by compound washout and measured after 48 hrs by MTT assay; format: cell-based

## C[n+]1cc(O)c(C(=O)[O-])cc1-c1ccccc1
Streptococcus pyogenes [1]
  minimal effective concentration: > 32 µM
Enterococcus faecium [2]
  minimal effective concentration: > 32 µM
Escherichia coli [3]
  minimal effective concentration: > 32 µM
Enterococcus faecium [4]
  minimal effective concentration: > 32 µM
Enterococcus faecium [5]
  minimal effective concentration: > 32 µM
Enterococcus faecium [6]
  Activity: Non-Toxic
Enterococcus faecium [7]
  minimal effective concentration: > 32 µM
Staphylococcus aureus [8]
  minimal effective concentration: > 32 µM
Escherichia coli [9]
  minimal effective concentration: > 32 µM
Escherichia coli [10]
  minimal effective concentration: > 32 µM
Streptococcus pyogenes [11]
  minimal effective concentration: > 32 µM
Macrophage cell line [12]
  Activity: Non-Toxic
Klebsiella pneumoniae [13]
  minimal effective concentration: > 32 µM
Pseudomonas aeruginosa [14]
  Activity: Non-Toxic
Macrophage cell line [15]
  inhibition: inactive
Staphylococcus aureus [16]
  minimal effective concentration: > 32 µM
Pseudomonas aeruginosa [17]
  minimal effective concentration: > 32 µM
Pseudomonas aeruginosa [18]
  minimal effective concentration: > 32 µM
Macrophage cell line [19]
  inhibition: inactive
Streptococcus pyogenes [20]
  minimal effective concentration: > 32 µM
Klebsiella pneumoniae [21]
  minimal effective concentration: > 32 µM
Klebsiella pneumoniae [22]
  Activity: Non-Toxic
Klebsiella pneumoniae [23]
  minimal effective concentration: > 32 µM
Macrophage cell line [24]
  Activity: Non-Toxic
Staphylococcus aureus [25]
  minimal effective concentration: > 32 µM
Pseudomonas aeruginosa [26]
  minimal effective concentration: > 32 µM
Escherichia coli [27]
  Activity: Non-Toxic
Escherichia coli [28]
  minimal effective concentration: > 32 µM
Streptococcus pyogenes [29]
  minimal effective concentration: > 32 µM
Pseudomonas aeruginosa [30]
  minimal effective concentration: > 32 µM
Macrophage cell line [31]
  Activity: Non-Toxic
Pseudomonas aeruginosa [32]
  minimal effective concentration: > 32 µM
Macrophage cell line [33]
  IC50: 91.4 µM
